Experimental findings from patent US8541415B2 (University of Pittsburgh—of the Commonwealth System of …, priority 2008, dated 2013) are described below.

Data set [1] concerns the target T1, Nef:Hck-YEEI complex (Homo sapiens, UniProt P08631).
Target sequence in this assay (P03407 2-210): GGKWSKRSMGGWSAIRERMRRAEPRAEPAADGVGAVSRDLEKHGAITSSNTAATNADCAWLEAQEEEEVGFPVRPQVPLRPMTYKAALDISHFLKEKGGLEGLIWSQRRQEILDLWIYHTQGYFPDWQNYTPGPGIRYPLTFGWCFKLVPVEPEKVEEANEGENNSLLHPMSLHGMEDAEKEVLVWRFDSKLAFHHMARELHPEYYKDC
Target sequence in this assay (P08631 other isoform, or with tags, fused parts or gaps): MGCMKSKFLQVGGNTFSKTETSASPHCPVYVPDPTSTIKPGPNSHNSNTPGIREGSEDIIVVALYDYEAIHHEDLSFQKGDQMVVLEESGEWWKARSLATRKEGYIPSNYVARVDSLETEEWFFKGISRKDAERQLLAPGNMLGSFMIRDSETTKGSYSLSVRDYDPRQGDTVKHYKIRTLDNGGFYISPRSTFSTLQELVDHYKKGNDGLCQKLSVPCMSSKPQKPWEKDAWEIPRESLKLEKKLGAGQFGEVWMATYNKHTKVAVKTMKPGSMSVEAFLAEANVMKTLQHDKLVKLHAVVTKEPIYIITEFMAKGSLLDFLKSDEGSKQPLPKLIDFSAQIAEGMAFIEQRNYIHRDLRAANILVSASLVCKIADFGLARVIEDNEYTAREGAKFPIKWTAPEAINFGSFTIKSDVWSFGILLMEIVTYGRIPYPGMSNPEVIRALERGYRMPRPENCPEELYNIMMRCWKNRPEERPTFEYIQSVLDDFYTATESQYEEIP
Procedure: For the liquid growth assay, yeast strain W303a was co-transformed with the required plasmids, seeded at an initial density of OD600nm=0.05 units in SD/-U-T medium, and incubated for 21 h at 30° C.
Aliquots of yeast cultures used for the spot assay were grown in SD/-U-T medium plus galactose for 18 h. […] Aliquots of each lysate (0.2 OD600nm units) were separated via SDS-PAGE, transferred to PVDF membranes, and probed for protein phosphotyrosine content with a combination of the anti-phosphotyrosine antibodies PY99 (Santa Cruz Biotechnology, Santa Cruz, Calif.) and PY20 (Transduction Laboratories, Lexington, Ky.).
Yeast strain W303a was co-transformed with Hck-YEEI (SE0 ID NO: 4) and Nef expression plasmids and grown to an OD600nm of 0.05. Cells (100 μL) were plated in duplicate wells of a 96-well plate in the presence of each compound from the Chempiv kinase-biased inhibitor library (Chempiv, Inc., San Diego, Calif.). All compounds were initially screened at 10 μM with 0.5% DMSO as carrier solvent. […] Cultures were incubated at 30° C., and the OD60nm was measured at 0 and 22 h.
The subject of the next data set is HIV-1 strain NL4-3. Briefly: microbe, parasite or virus in culture. It counts as cell-based. As to conditions: for pIC50 / activity at 5 µM: Human immunodeficiency virus 1, NL43, U-87 MG; for Suppression of HIV replication / Anti-HIV activity (words, structure-activity comment on Table 1) / Inhibition of pseudotyped NL43 HIV-1 replication: U87MG cells; for Suppression of HIV replication: p24 release 4 days later, leads from yeast screen; for activity at 5 µM: 96 h, read-out: HIV p24% Control @ day 4; for Anti-HIV activity (words, structure-activity comment on Table 1): 5 μM, p24 day 4; for Inhibition of pseudotyped NL43 HIV-1 replication: FIGS. 1-3. How it is done: (§1) Lead compounds from the yeast screen were evaluated for activity in a Nef-dependent HIV replication assay. For these experiments, U87MG astroglioma cells engineered to express the HIV-1 co-receptors CD4 and CXCR4 were employed. Replication of HIV-1 NL4-3 is dependent upon an intact viral nef gene in these cells, making this system suitable to evaluate leads from the Nef-directed screen. U87MG cells were infected with HIV-1 in the presence of the top five compounds identified in the yeast screen, and HIV replication was monitored as p24 release into the culture supernatant 4 days later, as known in the art. As known in the art, “p24” refers to a constituent protein of the capsid of HIV-1.
(§2) The data of Table 1 are presented as percent p24 release relative to control in the absence of compound. […] Data are expressed as percent viable cells relative to untreated control culture.
It is understood that “strongest” and like terms in the context of inhibitors identified in a library screen refer to compounds that inhibit at the lowest concentrations. For these experiments, the U87MG astroglioma cell line was used as a model system. […] U87MG cells were infected with HIV-1 strain NL4-3 as well as an isogenic variant that fails to express Nef (ΔNef), over a wide range of viral titers and in the presence of each compound at 5 μM. Viral replication was assessed as HIV p24 antigen release into the culture supernatant 4 and/or 5 days later. Methods for the assay of p24 in culture supernatant are well known in the art and include, for example without limitation, immunochemical methods.

The next data set relates to U87MG cells. As to conditions: human; for Cytotoxicity, Viable cell % control: 96 h, 30 μM. The procedure:
as §1, §2

For data set [2], the target named is T1, Nef:Hck-YEEI complex. Particulars: Z'-Lyte dose-response, FIG. 7.
Target sequence in this assay (P08631 with tags, fused parts or gaps isoform P08631-3, other chains not shown): as the sequence (P08631 other isoform, or with tags, fused parts or gaps) above
Data set [3] relates to HIV-ΔNef mutant (NL4-3 that fails to express Nef). Briefly: Replication of Nef-defective HIV in U87MG cells (p24 ELISA). Particulars: p24 ELISA day 5, FIG. 8, for Ma even at 10 μM.
Procedure: HIV p24 release was determined by ELISA at day 5 following the addition of the DFP-analogs. […] U87MG cells were infected a viral density of 500 pg/ml. p24 as determined by ELISA.
To address whether Nef is required for the anti-retroviral effects of these compounds, HIV replication assays in U87MG cells infected with either wild-type or Nef-defective HIV were carried out.
Viral replication was monitored by measuring p24 protein levels in the culture supernatant 4 days after infection by standard ELISA-based techniques. Test compounds were added to the culture 30 min prior to infection with HIV, and DMSO was used as the carrier solvent at a final concentration of 0.1%.

Molecules are shown by their SMILES. pIC50: −log10 of the molar value. Read-outs that look alike come from different tables or passages of the source. Where only a bound is given, the exact number is not on record here.

Take `CN1CCN(C2CCC(n3cc(-c4ccc(Oc5ccccc5)cc4)c4c(N)ncnc43)CC2)CC1` (centres unmarked) [Compound A-419259]: the “Tyrosine phosphorylation of yeast proteins” value at Nef:Hck-YEEI complex [1] (inhibitor-treated yeast cultures, anti-phosphotyrosine immunoblot) is given as “decrease in tyrosine phosphorylation of yeast proteins to control levels”. Moreover, the “Reversal of growth arrest compared with Nef PxxP mutation” value at Nef:Hck-YEEI complex [1] (liquid yeast cultures, 5 μM) is “nearly as effective as mutation of the Nef PxxP motif”. For the same compound, on Nef:Hck-YEEI complex [1] (liquid yeast cultures, OD 600 nm, at both 1 μM and 5 μM vs untreated cultures), the “Reversal of growth suppression induced by Nef:Hck-YEEI” value was “significantly reversed the growth suppression”.

As for `O=S(=O)(Nc1nc2ccccc2nc1Nc1ccc2c(c1)OCCO2)c1ccc(Cl)cc1` [Compound Ia, 4-Chloro-N-[3-(2,3-dihydro-benzo[1,4]dioxin-6-ylamino)-quinoxalin-2-yl]-benzenesulfonamide], the melting point is 257 to 258 °C. For the same compound, the pIC50 in the data set on HIV-1 strain NL4-3 (read-out: IC50, HIV replication, U87MG cells expressing CD4 and CXCR4, HIV-1 NL4-3, concentration-response) is about 6.89. Also, the “Suppression of HIV replication” value in the data set with HIV-1 strain NL4-3 is given as “significantly suppressed HIV replication”. The “Concentration up to which not cytotoxic” value with U87MG cells is over 50 µM.

Consider `O=S(=O)(Nc1nc2ccccc2nc1Nc1ccc2ccccc2c1)c1ccccc1` [Compound Q1], for which the activity at 5 µM in the data set with HIV-1 strain NL4-3 was found to be 4%. Moreover, the “Cytotoxicity, Viable cell % control” value in the data set with U87MG cells stood at 98 % control.

With `COc1ccc(OC)c(Nc2nc3ccccc3nc2NS(=O)(=O)c2ccc(Cl)cc2)c1` [Compound Q2], in the data set with HIV-1 strain NL4-3, the activity at 5 µM came to 10%. The “Cytotoxicity, Viable cell % control” value in the data set on U87MG cells is listed as 100 % control.

With `COc1ccc(Nc2nc3ccccc3nc2NS(=O)(=O)c2ccc(Cl)cc2)cc1OC` [Compound Q3], in the data set on HIV-1 strain NL4-3, the activity at 5 µM was found to be 13% and the “Anti-HIV activity (words, structure-activity comment on Table 1)” value is recorded as “one of the most active compounds”. Moreover, in the data set on U87MG cells, the “Cytotoxicity, Viable cell % control” value is 100 % control.

Take `O=S(=O)(Nc1nc2ccccc2nc1Nc1cccc2ccccc12)c1ccccc1` [Compound Q4]: in the data set on HIV-1 strain NL4-3, the activity at 5 µM amounted to 26%. In the data set with U87MG cells, the “Cytotoxicity, Viable cell % control” value is 100 % control.

As for `COc1ccc(Nc2nc3ccccc3nc2NS(=O)(=O)c2ccc(Cl)cc2)c(OC)c1` [Compound Q5], the activity at 5 µM with HIV-1 strain NL4-3 was found to be 26%. In the data set on U87MG cells, the “Cytotoxicity, Viable cell % control” value is 96 % control.

For `Nc1ccc(S(=O)(=O)Nc2nc3ccccc3nc2Nc2ccc3ccccc3c2)cc1` [Compound Q6], the activity at 5 µM in the data set on HIV-1 strain NL4-3 turned out to be 40%. Also, the “Cytotoxicity, Viable cell % control” value with U87MG cells amounted to 92 % control.

In the case of `O=S(=O)(Nc1nc2ccccc2nc1Nc1ccccc1)c1ccccc1` [Compound Q7], in the data set with HIV-1 strain NL4-3, the activity at 5 µM amounted to 42%. Moreover, the “Cytotoxicity, Viable cell % control” value in the data set with U87MG cells amounted to 97 % control.

On to `COc1ccc(Nc2nc3ccccc3nc2NS(=O)(=O)c2ccc(C)cc2)c(OC)c1` [Compound Q8], for which the activity at 5 µM in the data set on HIV-1 strain NL4-3 is 55%. The “Cytotoxicity, Viable cell % control” value with U87MG cells is 90 % control.

Take `CCOc1ccccc1Nc1nc2ccccc2nc1NS(=O)(=O)c1ccc(C)cc1` [Compound Q9]: the activity at 5 µM in the data set with HIV-1 strain NL4-3 was 60%. The “Cytotoxicity, Viable cell % control” value in the data set on U87MG cells stood at 100 % control.

In the case of `COc1ccc2nc(NS(=O)(=O)c3ccccc3)c(Nc3cc(OC)c(OC)c(OC)c3)nc2c1` [Compound Q10], the activity at 5 µM in the data set on HIV-1 strain NL4-3 worked out at 62%. Further, the “Cytotoxicity, Viable cell % control” value with U87MG cells was 95 % control.

Turning to `O=S(=O)(Nc1nc2ccccc2nc1Nc1ccc(O)cc1)c1ccccc1` [Compound Q11], the activity at 5 µM with HIV-1 strain NL4-3 was 68%. For the same compound, the “Cytotoxicity, Viable cell % control” value in the data set with U87MG cells was determined as 88 % control.

For the compound `COc1ccc(Nc2nc3ccccc3nc2NS(=O)(=O)c2ccc(C)cc2)cc1OC` [Compound Q13], the activity at 5 µM with HIV-1 strain NL4-3 is 82%. In addition, the “Cytotoxicity, Viable cell % control” value with U87MG cells worked out at 91 % control.

Take `COc1ccccc1Nc1nc2ccccc2nc1NS(=O)(=O)c1ccccc1` [Compound Q14]: the activity at 5 µM in the data set with HIV-1 strain NL4-3 was 87%. Also, the “Cytotoxicity, Viable cell % control” value in the data set on U87MG cells is given as 93 % control.

`Cc1ccc(S(=O)(=O)Nc2nc3ccccc3nc2Nc2ccc3c(c2)OCCO3)cc1` [Compound Q15]: in the data set with HIV-1 strain NL4-3, the activity at 5 µM was 88%. The “Cytotoxicity, Viable cell % control” value in the data set with U87MG cells is on record as 96 % control.

Consider `CCOc1ccc(S(=O)(=O)Nc2nc3ccccc3nc2Nc2ccccc2)cc1` [Compound Q16], for which the activity at 5 µM with HIV-1 strain NL4-3 came out at 91%. Further, in the data set with U87MG cells, the “Cytotoxicity, Viable cell % control” value is 100 % control.

On to `COc1ccc(Nc2nc3ccccc3nc2NS(=O)(=O)c2ccccc2)cc1OC` [Compound Q17], for which, in the data set with HIV-1 strain NL4-3, the activity at 5 µM amounted to 100% and the “Anti-HIV activity (words, structure-activity comment on Table 1)” value is listed as “one of the least active”. In addition, the “Cytotoxicity, Viable cell % control” value in the data set with U87MG cells amounted to 97 % control.

For the compound `CCOc1ccc(S(=O)(=O)Nc2nc3ccccc3nc2Nc2ccc(OC)cc2)cc1` [Compound Q18], the activity at 5 µM with HIV-1 strain NL4-3 is 112%. The “Cytotoxicity, Viable cell % control” value in the data set with U87MG cells amounted to 99 % control.

Take `O=S(=O)(Nc1nc2ccccc2nc1Nc1cccc(O)c1)c1ccccc1` [Compound Q19]: the activity at 5 µM in the data set on HIV-1 strain NL4-3 was 114%. In addition, the “Cytotoxicity, Viable cell % control” value in the data set on U87MG cells came out at 92 % control.

Turning to `COc1ccc(Nc2nc3ccccc3nc2NS(=O)(=O)c2ccccc2)cc1` [Compound Q20], the activity at 5 µM in the data set with HIV-1 strain NL4-3 is 119%. Besides, the “Cytotoxicity, Viable cell % control” value with U87MG cells is 89 % control.

`O=S(=O)(Nc1nc2ccccc2nc1Nc1ccc2ccccc2c1)c1ccc(Cl)cc1` [Compound Q21, 4-Chloro-N-[3-(naphthalen-2-ylamino)-quinoxalin-2-yl]-benzenesulfonamide]: the melting point was in the range of 222 to 224 °C. Besides, the “Inhibition of pseudotyped NL43 HIV-1 replication” value in the data set with HIV-1 strain NL4-3 is recorded as “potent inhibitors of viral infection”.

In turn, `O=S(=O)(Nc1nc2ccccc2nc1Nc1cccc2ccccc12)c1ccc(Cl)cc1` [Compound Q22, 4-Chloro-N-[3-(naphthalen-1-ylamino)-quinoxalin-2-yl]-benzenesulfonamide] yielded a melting point of 262 to 265 °C. Further, in the data set on HIV-1 strain NL4-3 (U87MG cells infected with wild-type or Nef-deficient virus, FIG. 3), the “Selectivity wild-type vs Nef-deficient NL43 HIV-1” value is “selective and more potent at inhibiting the replication of wild-type virus”. In the data set on HIV-1 strain NL4-3, the “Inhibition of pseudotyped NL43 HIV-1 replication” value was “potent inhibitors of viral infection”.

Take `OCCNc1ncnc2oc(-c3ccccc3)c(-c3ccccc3)c12` [IIIL]: the activity at 5 µM with HIV-1 strain NL4-3 worked out at 93%. Moreover, the “Cytotoxicity, Viable cell % control” value in the data set on U87MG cells stood at 94 % control.

As for `c1ccc(-c2oc3ncnc(NCc4ccco4)c3c2-c2ccccc2)cc1` [IIIb], in the data set with HIV-1 strain NL4-3, the activity at 5 µM came out at 8%. The “Cytotoxicity, Viable cell % control” value in the data set with U87MG cells was 109 % control.

Regarding `Nc1ncnc2oc(-c3ccco3)c(-c3ccco3)c12` [IIIc], in the data set on HIV-1 strain NL4-3, the activity at 5 µM was 20%.

Turning to `Cc1ccc(-c2oc3ncnc(N)c3c2-c2ccc(C)cc2)cc1` [IIId], the activity at 5 µM in the data set on HIV-1 strain NL4-3 came out at 29%. For the same compound, the “Cytotoxicity, Viable cell % control” value in the data set with U87MG cells was found to be 90 % control.

Consider `c1ccc(-c2oc3ncnc(NCCN4CCOCC4)c3c2-c2ccccc2)cc1` [IIIe], for which the activity at 5 µM in the data set with HIV-1 strain NL4-3 is 39%. For the same compound, the “Cytotoxicity, Viable cell % control” value in the data set with U87MG cells was 89 % control.

In the case of `c1ccc(-c2oc3ncnc(NCCCN4CCOCC4)c3c2-c2ccccc2)cc1` [IIIf], the activity at 5 µM in the data set on HIV-1 strain NL4-3 amounted to 47%. Further, the “Cytotoxicity, Viable cell % control” value with U87MG cells amounted to 99 % control.

As to `O=C(O)CNc1ncnc2oc(-c3ccccc3)c(-c3ccccc3)c12` [IIIg], in the data set with HIV-1 strain NL4-3, the activity at 5 µM amounted to 58%. In addition, the “Cytotoxicity, Viable cell % control” value in the data set with U87MG cells was 100 % control.

As for `O=C(Nc1ncnc2oc(-c3ccccc3)c(-c3ccccc3)c12)c1ccco1` [IIIh], the activity at 5 µM with HIV-1 strain NL4-3 was 59%. Moreover, the “Cytotoxicity, Viable cell % control” value with U87MG cells is 89 % control.

`COc1ccc(-c2oc3ncnc(N)c3c2-c2ccccc2)cc1` [IIIj]: in the data set on HIV-1 strain NL4-3, the activity at 5 µM was found to be 73%. Besides, the “Cytotoxicity, Viable cell % control” value with U87MG cells was 97 % control.

For `c1ccc(-c2oc3ncnc(NCCCc4ccco4)c3c2-c2ccccc2)cc1` [IIIq, N-(3-(furan-2-yl)propyl) 5,6-diphenylfuro[2,3-d]pyrimidin-4-amine], the pIC50 with HIV-1 strain NL4-3 (120 h, read-out: IC50, wild-type HIV replication, U87MG cells, wild-type NL4-3, p24 ELISA day 5, FIG. 8) was at least 6.00. Besides, the “Inhibition of Nef:Hck complex” value at Nef:Hck-YEEI complex [2] is “enhanced both potency and efficacy for the Nef:Hck complex vs. Hck alone”. In addition, the “Effect on replication of HIV-ΔNef mutant” value in data set [3] is reported as “Neither IIIm nor IIIq shows inhibition”.

`Cc1nc2sc(-c3nc4ccccc4[nH]3)c(N)c2c(C)c1Cl` [IIa]: the “Suppression of HIV replication” value in the data set with HIV-1 strain NL4-3 is listed as “significantly suppressed HIV replication”. In addition, the “Concentration up to which not cytotoxic” value in the data set on U87MG cells is over 50 µM.

By melting point is commonly meant the temperature, or range, at which the solid turns liquid.
